According to ChEMBL document CHEMBL1147602, “DNA binding ligands targeting drug-resistant Gram-positive bacteria. Part 1: Internal benzimidazole derivatives” (Bioorg Med Chem Lett, 2004):
Values after ≈ are worked out from the molar mass of the structure shown. Values joined by “and” are separate entries in the source; they are usually repeats but may differ in a detail not shown here. Equal entries are not always repeated. Active and inactive are the calls of the source. No cut-off for these calls is given here.

Assays:
Escherichia coli = assay: Antibacterial activity against Escherichia coli ATCC 25922 strain; assay type: functional
Streptococcus pneumoniae [1] = assay: Antibacterial activity against penicillin-sensitive Streptococcus pneumoniae ATCC 49619 strain; assay type: functional
Staphylococcus aureus [2] = assay: Antibacterial activity against methicillin-susceptible Staphylococcus aureus ATCC 13709 strain; (Range is 1-2 ug/mL); assay type: functional
Enterococcus faecalis [3] = assay: Antibacterial activity against vancomycin-susceptible Enterococcus faecalis ATCC 29212 strain; assay type: functional
Nucleic Acid = assay: Dissociation constant for the DNA binding was determined by quantitative DNase I footprint titration; assay type: nucleic-acid assay
Enterococcus faecalis [4] = assay: Antibacterial activity against vancomycin-resistant Enterococcus faecalis ATCC 51559 strain; assay type: functional
Streptococcus pneumoniae [5] = assay: Antibacterial activity against penicillin-resistant Streptococcus pneumoniae ATCC 51422 strain; assay type: functional
Staphylococcus aureus [6] = assay: Antibacterial activity against methicillin-resistant Staphylococcus aureus ATCC 27660 strain; assay type: functional
Staphylococcus aureus [7] = assay: Antibacterial activity against methicillin-sensitive Staphylococcus aureus ATCC 13709 strain; assay type: functional
Enterococcus faecalis [8] = assay: Antibacterial activity against vancomycin-sensitive Enterococcus faecalis ATCC 29212 strain; assay type: functional
Staphylococcus aureus [9] = assay: Antibacterial activity against methicillin-susceptible Staphylococcus aureus ATCC 13709 strain; assay type: functional
Enterococcus faecalis [10] = assay: Antibacterial activity against vancomycin-resistant Enterococcus faecalis ATCC 51559 strain; NA means not analyzed; assay type: functional, organism-based
Streptococcus pneumoniae [11] = assay: Antibacterial activity against penicillin-resistant Streptococcus pneumoniae ATCC 51422 strain; NA means not analyzed; assay type: functional, organism-based
Moraxella catarrhalis = assay: Antibacterial activity against Moraxella catarrhalis ATCC 25238 strain; assay type: functional
Pseudomonas aeruginosa = assay: Antibacterial activity against Pseudomonas aeruginosa (ATCC 27853) strain; inactive; assay type: functional
Haemophilus influenzae = assay: Antibacterial activity against Haemophilus influenzae ATCC 78025 strain; assay type: functional
Mus musculus = assay: In vivo protective dose for efficacy against a lethal infection of methicillin-resistant Staphylococcus aureus in a mouse peritoneal sepsis model administered intravenously; assay type: functional

For `Cn1cc(NC(=O)c2cc(NC(=O)c3cc(NC(=O)c4sccc4Cl)cn3C)cn2C)cc1C(=O)NCCN1CCOCC1`, the MIC (Escherichia coli) was greater than 32 µg/mL, the MIC (Streptococcus pneumoniae [1]) was 0.13 µg/mL (≈ 0.203 µM) and the MIC (Staphylococcus aureus [2]) was 2 µg/mL (≈ 3.12 µM). The MIC (Enterococcus faecalis [3]) was 1 µg/mL (≈ 1.56 µM).
Work on `Cn1cc(NC(=O)c2cc3ccccc3cn2)cc1-c1nc2cc(C(=O)NCCN3CCOCC3)ccc2[nH]1` yielded a Kd (Nucleic Acid) of roughly 10 nM, an MIC (Enterococcus faecalis [4]) of 1 µg/mL (≈ 1.91 µM) and an MIC (Escherichia coli) greater than 32 µg/mL. It also gave an MIC (Streptococcus pneumoniae [5]) of 0.5 µg/mL (≈ 0.955 µM), an MIC (Streptococcus pneumoniae [1]) of 0.25 µg/mL (≈ 0.477 µM) and an MIC (Staphylococcus aureus [6]) of 0.5 µg/mL (≈ 0.955 µM). It also gave an MIC (Staphylococcus aureus [7]) of 0.5 µg/mL (≈ 0.955 µM) and an MIC (Enterococcus faecalis [8]) of 0.5 µg/mL (≈ 0.955 µM).
For `Cn1cc(NC(=O)c2sc3ccccc3c2Cl)cc1-c1nc2cc(C(=O)NCCN3CCOCC3)ccc2[nH]1`, the MIC (Enterococcus faecalis [4]) was 0.25 µg/mL (≈ 0.444 µM), the MIC (Escherichia coli) was greater than 32 µg/mL and the MIC (Streptococcus pneumoniae [5]) was 0.25 µg/mL (≈ 0.444 µM). The MIC (Streptococcus pneumoniae [1]) was 0.13 µg/mL (≈ 0.231 µM), the MIC (Staphylococcus aureus [6]) was 0.13 µg/mL (≈ 0.231 µM) and the MIC (Staphylococcus aureus [7]) was 0.25 µg/mL (≈ 0.444 µM). It also gave an MIC (Enterococcus faecalis [8]) of 0.5 µg/mL (≈ 0.888 µM).
Molecule `Cn1cc(NC(=O)c2ccc(F)cc2F)cc1C(=O)Nc1cc(-c2nc3cc(C(=O)NCCN4CCOCC4)ccc3[nH]2)n(C)c1` has an MIC (Enterococcus faecalis [4]) of 0.25 µg/mL (≈ 0.396 µM), an MIC (Escherichia coli) of 4 µg/mL (≈ 6.34 µM) and an MIC (Streptococcus pneumoniae [5]) of 0.06 µg/mL (≈ 0.0951 µM). The MIC (Streptococcus pneumoniae [1]) was 0.06 µg/mL (≈ 0.0951 µM), the MIC (Staphylococcus aureus [6]) was 0.13 µg/mL (≈ 0.206 µM) and the MIC (Staphylococcus aureus [7]) was 0.25 µg/mL (≈ 0.396 µM). The MIC (Enterococcus faecalis [8]) was 0.06 µg/mL (≈ 0.0951 µM).
In the case of `Cn1cc(NC(=O)c2ccc(Cl)cc2F)cc1C(=O)Nc1cc(-c2nc3cc(C(=O)NCCN4CCOCC4)ccc3[nH]2)n(C)c1`, the MIC (Enterococcus faecalis [4]) is reported as 0.13 µg/mL (≈ 0.201 µM), the MIC (Escherichia coli) is reported as 8 µg/mL (≈ 12.4 µM) and the MIC (Streptococcus pneumoniae [5]) is reported as 0.13 µg/mL (≈ 0.201 µM). It also gave an MIC (Streptococcus pneumoniae [1]) of 0.03 µg/mL (≈ 0.0464 µM), an MIC (Staphylococcus aureus [6]) of 0.13 µg/mL (≈ 0.201 µM) and an MIC (Staphylococcus aureus [7]) of 0.25 µg/mL (≈ 0.386 µM). For the same molecule, the MIC (Enterococcus faecalis [8]) was 0.03 µg/mL (≈ 0.0464 µM).
`Cn1cc(NC(=O)c2ccc3[nH]c(-c4cc(NC(=O)c5sccc5Cl)cn4C)nc3c2)cc1C(=O)NCCN1CCOCC1` showed an MIC (Escherichia coli) greater than 32 µg/mL, an MIC (Streptococcus pneumoniae [1]) of 0.25 µg/mL (≈ 0.394 µM) and an MIC (Staphylococcus aureus [9]) of 0.13 µg/mL (≈ 0.205 µM). For the same molecule, the MIC (Enterococcus faecalis [3]) was 0.25 µg/mL (≈ 0.394 µM).
For `Cn1cc(NC(=O)c2sccc2Cl)cc1-c1nc2cc(C(=O)NCCN3CCOCC3)ccc2[nH]1`, the Kd (Nucleic Acid) was roughly 500 nM, the MIC (Enterococcus faecalis [10]) was “inactive” and the MIC (Escherichia coli) was greater than 32 µg/mL. It also gave an MIC (Streptococcus pneumoniae [1]) of 4 µg/mL (≈ 7.8 µM), an MIC (Staphylococcus aureus [6]) of 8 µg/mL (≈ 15.6 µM) and an MIC (Staphylococcus aureus [7]) of 8 µg/mL (≈ 15.6 µM). For the same molecule, the MIC (Streptococcus pneumoniae [11]) was “inactive” and the MIC (Enterococcus faecalis [8]) was 4 µg/mL (≈ 7.8 µM).
`Cn1cc(NC(=O)c2sccc2Cl)cc1C(=O)Nc1cc(-c2nc3cc(C(=O)NCCN4CCCCC4)ccc3[nH]2)n(C)c1` gave an MIC (Enterococcus faecalis [4]) of 0.5 µg/mL (≈ 0.79 µM), an MIC (Escherichia coli) greater than 32 µg/mL and an MIC (Streptococcus pneumoniae [5]) of 0.13 µg/mL (≈ 0.205 µM). For the same molecule, the MIC (Streptococcus pneumoniae [1]) was 0.25 µg/mL (≈ 0.395 µM), the MIC (Staphylococcus aureus [6]) was 0.5 µg/mL (≈ 0.79 µM) and the MIC (Staphylococcus aureus [7]) was 2 µg/mL (≈ 3.16 µM). For the same molecule, the MIC (Enterococcus faecalis [8]) was 0.5 µg/mL (≈ 0.79 µM).
`Cn1cc(NC(=O)c2sc3ccccc3c2Cl)cc1C(=O)Nc1cc(-c2nc3cc(C(=O)NCCN4CCOCC4)ccc3[nH]2)n(C)c1` showed an MIC (Enterococcus faecalis [4]) of 0.25 µg/mL (≈ 0.365 µM), an MIC (Escherichia coli) greater than 32 µg/mL and an MIC (Streptococcus pneumoniae [5]) of 0.13 µg/mL (≈ 0.19 µM). The MIC (Streptococcus pneumoniae [1]) was 0.13 µg/mL (≈ 0.19 µM), the MIC (Staphylococcus aureus [6]) was 0.5 µg/mL (≈ 0.73 µM) and the MIC (Staphylococcus aureus [7]) was 0.13 µg/mL (≈ 0.19 µM). It also gave an MIC (Enterococcus faecalis [8]) of 0.25 µg/mL (≈ 0.365 µM).
With `Cn1cc(NC(=O)c2sccc2Cl)cc1C(=O)Nc1cc(-c2nc3cc(C(=O)NCCN4CCSCC4)ccc3[nH]2)n(C)c1` the MIC (Enterococcus faecalis [4]) was 0.13 µg/mL (≈ 0.2 µM), the MIC (Escherichia coli) was greater than 32 µg/mL and the MIC (Streptococcus pneumoniae [5]) was 0.06 µg/mL (≈ 0.0921 µM). For the same molecule, the MIC (Streptococcus pneumoniae [1]) was 0.13 µg/mL (≈ 0.2 µM), the MIC (Staphylococcus aureus [6]) was 0.5 µg/mL (≈ 0.768 µM) and the MIC (Staphylococcus aureus [7]) was 1 µg/mL (≈ 1.54 µM). For the same molecule, the MIC (Enterococcus faecalis [8]) was 0.13 µg/mL (≈ 0.2 µM).
`Cn1cc(NC(=O)c2ccc(Cl)cc2F)cc1-c1nc2cc(C(=O)NCCN3CCOCC3)ccc2[nH]1` gave an MIC (Enterococcus faecalis [4]) of 0.06 µg/mL (≈ 0.114 µM), an MIC (Escherichia coli) greater than 32 µg/mL and an MIC (Streptococcus pneumoniae [5]) of 0.03 µg/mL (≈ 0.0571 µM). For the same molecule, the MIC (Streptococcus pneumoniae [1]) was 0.03 µg/mL (≈ 0.0571 µM), the MIC (Staphylococcus aureus [6]) was 0.25 µg/mL (≈ 0.476 µM) and the MIC (Staphylococcus aureus [7]) was 0.13 µg/mL (≈ 0.248 µM). It also gave an MIC (Enterococcus faecalis [8]) of 0.03 µg/mL (≈ 0.0571 µM).
Work on `Cn1cc(NC(=O)c2cc3cc4c(cc3s2)OCO4)cc1-c1nc2cc(C(=O)NCCN3CCOCC3)ccc2[nH]1` yielded an MIC (Enterococcus faecalis [4]) of 0.03 µg/mL (≈ 0.0524 µM), an MIC (Escherichia coli) of 0.5 µg/mL (≈ 0.873 µM) and an MIC (Moraxella catarrhalis) of 0.031 µg/mL (≈ 0.0541 µM). For the same molecule, the MIC (Pseudomonas aeruginosa) was 32 µg/mL (≈ 55.9 µM), the MIC (Streptococcus pneumoniae [5]) was 0.06 µg/mL (≈ 0.105 µM) and the MIC (Streptococcus pneumoniae [1]) was 0.06 µg/mL (≈ 0.105 µM). The MIC (Staphylococcus aureus [6]) was 0.03 µg/mL (≈ 0.0524 µM), the MIC (Staphylococcus aureus [7]) was 0.03 µg/mL (≈ 0.0524 µM) and the MIC (Haemophilus influenzae) was 0.06 µg/mL (≈ 0.105 µM). The MIC (Enterococcus faecalis [8]) was 0.03 µg/mL (≈ 0.0524 µM).
With `Cn1cc(NC(=O)c2sccc2Cl)cc1C(=O)Nc1cc(-c2nc3cc(C(=O)NCCN4CCOCC4)ccc3[nH]2)n(C)c1` the Kd (Nucleic Acid) was less than 0.1 nM, the MIC (Enterococcus faecalis [4]) was 0.13 µg/mL (≈ 0.205 µM) and the MIC (Escherichia coli) was 4 µg/mL (≈ 6.3 µM). For the same molecule, the Protective dose (Mus musculus) was 50 mg/kg and 20 mg/kg, the MIC (Streptococcus pneumoniae [5]) was 0.03 µg/mL (≈ 0.0472 µM) and the MIC (Streptococcus pneumoniae [1]) was 0.25 µg/mL (≈ 0.394 µM). For the same molecule, the MIC (Staphylococcus aureus [6]) was 0.25 µg/mL (≈ 0.394 µM), the MIC (Staphylococcus aureus [9]) was 0.25 µg/mL (≈ 0.394 µM) and the MIC (Enterococcus faecalis [3]) was 0.25 µg/mL (≈ 0.394 µM).
